Measured values reported in patent US10702507B2, “Endoparasite control agent” (THE UNIVERSITY OF TOKYO, priority 2014, dated 2020).

What follows are compounds tested on 1st-stage larvae of Haemonchus contortus (assay: Test for effect on motion of larvae of Haemonchus nematode). Conditions: 20 larvae per well, 27° C./95% RH for 4 days, corrected against DMSO negative control, duplicate.
Procedure: Test for Effect on Motion of Larvae of Haemonchus Nematode (Haemonchus contortus) The compound of the present invention was prepared as solutions in 100% DMSO at the final concentrations of 50 ppm, 5 ppm, 0.5 ppm, 0.05 ppm and 0.005 ppm. DMSO stands for dimethyl sulfoxide. A larval suspension containing 1st-stage larvae of Haemonchus contortus harvested by the Baermann technique (for example, see K. Nakazono et al., “Inclination of Baermann funnel wall and efficiency of nematode extraction” Proc. Assoc. Pl. Prot. Kyushu 33: 126-130 (1987)) was placed at a density of 20 larvae per well in a test plate, and 0.5 μL/well of the test solution containing the compound of the present invention diluted to a predetermined concentration was added to the test plate. The plate was kept under the conditions of 27° C./95% RH for 4 days. In the test, ivermectin was used for the positive control and DMSO was used for the negative control. The motor ability of the larvae was examined with an automatic analyzer equipped with an LCD camera. The inhibitory effect on the motion of the larvae in each treatment plot was corrected based on the inhibitory effect in the plot treated with DMSO only for the negative control. The EC50 value was calculated from the data on the corrected inhibitory effect on the motion of the larvae, and graded according to the criteria shown below. The test was conducted in duplicate per plot.
For `CC(CNC(=O)c1ccccc1C(F)(F)F)c1ccc(Oc2ncc(C(F)(F)F)cc2Cl)cc1Cl` (racemic) [Compound 1-41], the “EC50 value of corrected inhibitory effect on the motion of the larvae, graded” value was “C or higher”. With `CC(CNC(=O)c1ccccc1C(F)(F)F)c1ccc(Oc2ccc(C(F)(F)F)cn2)cc1Cl` (racemic) [Compound 1-42] the “EC50 value of corrected inhibitory effect on the motion of the larvae, graded” value was “C or higher”. For `CC(CNC(=O)c1ccccc1C(F)(F)F)c1ccc(Oc2ncc(Cl)cc2Cl)cc1Cl` (racemic) [Compound 1-43], the “EC50 value of corrected inhibitory effect on the motion of the larvae, graded” value was “C or higher”. `CC(CNC(=O)c1ccccc1C(F)(F)F)c1ccc(-c2ccc(C(F)(F)F)cc2)cc1Cl` (racemic) [Compound 1-57] was tested, and the “EC50 value of corrected inhibitory effect on the motion of the larvae, graded” value was “C or higher”. In the case of `CC(CNC(=O)c1ccccc1C(F)(F)F)c1ccc(-c2ccccc2)cc1Cl` (racemic) [Compound 1-58], the “EC50 value of corrected inhibitory effect on the motion of the larvae, graded” value is reported as “C or higher”. In the case of `CC(CNC(=O)c1ccccc1C(F)(F)F)c1ccc(-c2ccncc2)cc1Cl` (racemic) [Compound 1-59], the “EC50 value of corrected inhibitory effect on the motion of the larvae, graded” value is reported as “C or higher”. For `COC(CNC(=O)c1ccccc1C(F)(F)F)c1ccc(Oc2ncc(C(F)(F)F)cc2Cl)cc1Cl` (racemic) [Compound 1-60], the “EC50 value of corrected inhibitory effect on the motion of the larvae, graded” value was “C or higher”. For `COC(CNC(=O)c1ccccc1C(F)(F)F)c1ccc(Oc2ccc(C(F)(F)F)cn2)cc1Cl` (racemic) [Compound 1-61], the “EC50 value of corrected inhibitory effect on the motion of the larvae, graded” value was “C or higher”. In the case of `COC(CNC(=O)c1ccccc1C(F)(F)F)c1ccc(Oc2ncc(Cl)cc2Cl)cc1Cl` (racemic) [Compound 1-62], the “EC50 value of corrected inhibitory effect on the motion of the larvae, graded” value is reported as “C or higher”. For `O=C(NCCc1ccc(Oc2ncc(Cl)cc2Cl)cc1Cl)c1ccccc1C(F)(F)F` [Compound 1-1], the “EC50 value of corrected inhibitory effect on the motion of the larvae, graded” value was “C or higher”. For `O=C(NCCc1ccc(Oc2ncc(Br)cc2Cl)cc1Cl)c1ccccc1C(F)(F)F` [Compound 1-2], the “EC50 value of corrected inhibitory effect on the motion of the larvae, graded” value was “C or higher”. For `O=C(NCCc1ccc(Oc2nccnc2C(F)(F)F)cc1Cl)c1ccccc1C(F)(F)F` [Compound 1-3], the “EC50 value of corrected inhibitory effect on the motion of the larvae, graded” value was “C or higher”. For `O=C(NCCc1ccc(Oc2nccnc2Cl)cc1Cl)c1ccccc1C(F)(F)F` [Compound 1-4], the “EC50 value of corrected inhibitory effect on the motion of the larvae, graded” value was “C or higher”. In the case of `O=C(NCCc1ccc(Oc2cnccn2)cc1Cl)c1ccccc1C(F)(F)F` [Compound 1-5], the “EC50 value of corrected inhibitory effect on the motion of the larvae, graded” value is reported as “C or higher”. For `COc1cc(OC)nc(Oc2ccc(CCNC(=O)c3ccccc3C(F)(F)F)c(Cl)c2)n1` [Compound 1-6], the “EC50 value of corrected inhibitory effect on the motion of the larvae, graded” value was “C or higher”. For `Cc1cc(C)nc(Oc2ccc(CCNC(=O)c3ccccc3C(F)(F)F)c(Cl)c2)n1` [Compound 1-7], the “EC50 value of corrected inhibitory effect on the motion of the larvae, graded” value was “C or higher”. For `O=C(NCCc1ccc(Oc2ccnc(Cl)n2)cc1Cl)c1ccccc1C(F)(F)F` [Compound 1-8], the “EC50 value of corrected inhibitory effect on the motion of the larvae, graded” value was “C or higher”. With `O=C(NCCc1ccc(Oc2cc(Cl)nc(Cl)n2)cc1Cl)c1ccccc1C(F)(F)F` [Compound 1-9] the “EC50 value of corrected inhibitory effect on the motion of the larvae, graded” value was “C or higher”. With `Cc1cc(Oc2ccc(CCNC(=O)c3ccccc3C(F)(F)F)c(Cl)c2)nc(Cl)n1` [Compound 1-10] the “EC50 value of corrected inhibitory effect on the motion of the larvae, graded” value was “C or higher”. With `Cc1cnc(Cl)nc1Oc1ccc(CCNC(=O)c2ccccc2C(F)(F)F)c(Cl)c1` [Compound 1-11] the “EC50 value of corrected inhibitory effect on the motion of the larvae, graded” value was “C or higher”. With `O=C(NCCc1ccc(Oc2ccc3ccccc3n2)cc1Cl)c1ccccc1C(F)(F)F` [Compound 1-13] the “EC50 value of corrected inhibitory effect on the motion of the larvae, graded” value was “C or higher”. With `O=C(NCCc1ccc(Oc2cnc3ccccc3n2)cc1Cl)c1ccccc1C(F)(F)F` [Compound 1-14] the “EC50 value of corrected inhibitory effect on the motion of the larvae, graded” value was “C or higher”. In the case of `O=C(NCCc1ccc(Oc2nc3ccccc3s2)cc1Cl)c1ccccc1C(F)(F)F` [Compound 1-15], the “EC50 value of corrected inhibitory effect on the motion of the larvae, graded” value is reported as “C or higher”. With `O=C(NCCc1ccc(Oc2nc3ccc(Cl)cc3s2)cc1Cl)c1ccccc1C(F)(F)F` [Compound 1-16] the “EC50 value of corrected inhibitory effect on the motion of the larvae, graded” value was “C or higher”. In the case of `O=C(NCCc1ccc(Oc2nc3ccccc3o2)cc1Cl)c1ccccc1C(F)(F)F` [Compound 1-17], the “EC50 value of corrected inhibitory effect on the motion of the larvae, graded” value is reported as “C or higher”. With `O=C(NCCc1ccc(Oc2ccccc2)cc1Cl)c1ccccc1C(F)(F)F` [Compound 1-18] the “EC50 value of corrected inhibitory effect on the motion of the larvae, graded” value was “C or higher”. `O=C(NCCc1ccc(Oc2ccc(C(F)(F)F)cc2)cc1Cl)c1ccccc1C(F)(F)F` [Compound 1-19] was tested, and the “EC50 value of corrected inhibitory effect on the motion of the larvae, graded” value was “C or higher”. In the case of `O=C(NCCc1ccc(Oc2ncc(C(F)(F)F)cc2Cl)cc1Cl)c1ccccc1I` [Compound 1-20], the “EC50 value of corrected inhibitory effect on the motion of the larvae, graded” value is reported as “C or higher”. In the case of `O=C(NCCc1ccc(Oc2ccc(C(F)(F)F)cn2)cc1Cl)c1ccccc1I` [Compound 1-21], the “EC50 value of corrected inhibitory effect on the motion of the larvae, graded” value is reported as “C or higher”. `O=C(NCCc1ccc(Oc2ncc(Cl)cc2Cl)cc1Cl)c1ccccc1I` [Compound 1-22] was tested, and the “EC50 value of corrected inhibitory effect on the motion of the larvae, graded” value was “C or higher”. In the case of `O=C(NCCc1ccc(Oc2ncc(Br)cc2Cl)cc1Cl)c1ccccc1I` [Compound 1-23], the “EC50 value of corrected inhibitory effect on the motion of the larvae, graded” value is reported as “C or higher”. `O=C(NCCc1ccc(Oc2nccnc2C(F)(F)F)cc1Cl)c1ccccc1I` [Compound 1-24] was tested, and the “EC50 value of corrected inhibitory effect on the motion of the larvae, graded” value was “C or higher”. `O=C(NCCc1ccc(Oc2nccnc2Cl)cc1Cl)c1ccccc1I` [Compound 1-25] was tested, and the “EC50 value of corrected inhibitory effect on the motion of the larvae, graded” value was “C or higher”. For `O=C(NCCc1ccc(Oc2cnccn2)cc1Cl)c1ccccc1I` [Compound 1-26], the “EC50 value of corrected inhibitory effect on the motion of the larvae, graded” value was “C or higher”. With `COc1cc(OC)nc(Oc2ccc(CCNC(=O)c3ccccc3I)c(Cl)c2)n1` [Compound 1-27] the “EC50 value of corrected inhibitory effect on the motion of the larvae, graded” value was “C or higher”. In the case of `Cc1cc(C)nc(Oc2ccc(CCNC(=O)c3ccccc3I)c(Cl)c2)n1` [Compound 1-28], the “EC50 value of corrected inhibitory effect on the motion of the larvae, graded” value is reported as “C or higher”. In the case of `O=C(NCCc1ccc(Oc2ccnc(Cl)n2)cc1Cl)c1ccccc1I` [Compound 1-29], the “EC50 value of corrected inhibitory effect on the motion of the larvae, graded” value is reported as “C or higher”. `O=C(NCCc1ccc(Oc2cc(Cl)nc(Cl)n2)cc1Cl)c1ccccc1I` [Compound 1-30] was tested, and the “EC50 value of corrected inhibitory effect on the motion of the larvae, graded” value was “C or higher”. In the case of `Cc1cc(Oc2ccc(CCNC(=O)c3ccccc3I)c(Cl)c2)nc(Cl)n1` [Compound 1-31], the “EC50 value of corrected inhibitory effect on the motion of the larvae, graded” value is reported as “C or higher”. In the case of `Cc1cnc(Cl)nc1Oc1ccc(CCNC(=O)c2ccccc2I)c(Cl)c1` [Compound 1-32], the “EC50 value of corrected inhibitory effect on the motion of the larvae, graded” value is reported as “C or higher”. `O=C(NCCc1ccc(Oc2ccc3ccccc3n2)cc1Cl)c1ccccc1I` [Compound 1-34] was tested, and the “EC50 value of corrected inhibitory effect on the motion of the larvae, graded” value was “C or higher”. `O=C(NCCc1ccc(Oc2cnc3ccccc3n2)cc1Cl)c1ccccc1I` [Compound 1-35] was tested, and the “EC50 value of corrected inhibitory effect on the motion of the larvae, graded” value was “C or higher”. In the case of `O=C(NCCc1ccc(Oc2nc3ccccc3s2)cc1Cl)c1ccccc1I` [Compound 1-36], the “EC50 value of corrected inhibitory effect on the motion of the larvae, graded” value is reported as “C or higher”. With `O=C(NCCc1ccc(Oc2nc3ccc(Cl)cc3s2)cc1Cl)c1ccccc1I` [Compound 1-37] the “EC50 value of corrected inhibitory effect on the motion of the larvae, graded” value was “C or higher”. `O=C(NCCc1ccc(Oc2nc3ccccc3o2)cc1Cl)c1ccccc1I` [Compound 1-38] was tested, and the “EC50 value of corrected inhibitory effect on the motion of the larvae, graded” value was “C or higher”. For `O=C(NCCc1ccc(Oc2ccccc2)cc1Cl)c1ccccc1I` [Compound 1-39], the “EC50 value of corrected inhibitory effect on the motion of the larvae, graded” value was “C or higher”. For `O=C(NCCc1ccc(Oc2ccc(C(F)(F)F)cc2)cc1Cl)c1ccccc1I` [Compound 1-40], the “EC50 value of corrected inhibitory effect on the motion of the larvae, graded” value was “C or higher”. In the case of `CC(C)(CNC(=O)c1ccccc1C(F)(F)F)c1ccc(Oc2ncc(C(F)(F)F)cc2Cl)cc1Cl` [Compound 1-44], the “EC50 value of corrected inhibitory effect on the motion of the larvae, graded” value is reported as “C or higher”. With `CC(C)(CNC(=O)c1ccccc1C(F)(F)F)c1ccc(Oc2ccc(C(F)(F)F)cn2)cc1Cl` [Compound 1-45] the “EC50 value of corrected inhibitory effect on the motion of the larvae, graded” value was “C or higher”. With `CC(C)(CNC(=O)c1ccccc1C(F)(F)F)c1ccc(Oc2ncc(Cl)cc2Cl)cc1Cl` [Compound 1-46] the “EC50 value of corrected inhibitory effect on the motion of the larvae, graded” value was “C or higher”. For `O=C(NCC1(c2ccc(Oc3ncc(C(F)(F)F)cc3Cl)cc2Cl)CC1)c1ccccc1C(F)(F)F` [Compound 1-47], the “EC50 value of corrected inhibitory effect on the motion of the larvae, graded” value was “C or higher”. With `O=C(NCC1(c2ccc(Oc3ccc(C(F)(F)F)cn3)cc2Cl)CC1)c1ccccc1C(F)(F)F` [Compound 1-48] the “EC50 value of corrected inhibitory effect on the motion of the larvae, graded” value was “C or higher”. With `O=C(NCC1(c2ccc(Oc3ncc(Cl)cc3Cl)cc2Cl)CC1)c1ccccc1C(F)(F)F` [Compound 1-49] the “EC50 value of corrected inhibitory effect on the motion of the larvae, graded” value was “C or higher”. In the case of `O=C(NCCc1ccc(-c2ccc(C(F)(F)F)cc2)cc1Cl)c1ccccc1C(F)(F)F` [Compound 1-50], the “EC50 value of corrected inhibitory effect on the motion of the larvae, graded” value is reported as “C or higher”. With `O=C(NCCc1ccc(-c2cccc(C(F)(F)F)c2)cc1Cl)c1ccccc1C(F)(F)F` [Compound 1-51] the “EC50 value of corrected inhibitory effect on the motion of the larvae, graded” value was “C or higher”. In the case of `O=C(NCCc1ccc(-c2cc(F)cc(F)c2)cc1Cl)c1ccccc1C(F)(F)F` [Compound 1-52], the “EC50 value of corrected inhibitory effect on the motion of the larvae, graded” value is reported as “C or higher”.
